Test results from ChEMBL document CHEMBL5653615 (J Biol Chem, 2013).

How the values were obtained:
[1] = biological target: T1, Ephrin type-B receptor 2 (Homo sapiens) (UniProt P29323); assay: Inhibition of human EPHB2 at 18.6 nM by HotSpot assay relative to control
T1 sequence (whole entry): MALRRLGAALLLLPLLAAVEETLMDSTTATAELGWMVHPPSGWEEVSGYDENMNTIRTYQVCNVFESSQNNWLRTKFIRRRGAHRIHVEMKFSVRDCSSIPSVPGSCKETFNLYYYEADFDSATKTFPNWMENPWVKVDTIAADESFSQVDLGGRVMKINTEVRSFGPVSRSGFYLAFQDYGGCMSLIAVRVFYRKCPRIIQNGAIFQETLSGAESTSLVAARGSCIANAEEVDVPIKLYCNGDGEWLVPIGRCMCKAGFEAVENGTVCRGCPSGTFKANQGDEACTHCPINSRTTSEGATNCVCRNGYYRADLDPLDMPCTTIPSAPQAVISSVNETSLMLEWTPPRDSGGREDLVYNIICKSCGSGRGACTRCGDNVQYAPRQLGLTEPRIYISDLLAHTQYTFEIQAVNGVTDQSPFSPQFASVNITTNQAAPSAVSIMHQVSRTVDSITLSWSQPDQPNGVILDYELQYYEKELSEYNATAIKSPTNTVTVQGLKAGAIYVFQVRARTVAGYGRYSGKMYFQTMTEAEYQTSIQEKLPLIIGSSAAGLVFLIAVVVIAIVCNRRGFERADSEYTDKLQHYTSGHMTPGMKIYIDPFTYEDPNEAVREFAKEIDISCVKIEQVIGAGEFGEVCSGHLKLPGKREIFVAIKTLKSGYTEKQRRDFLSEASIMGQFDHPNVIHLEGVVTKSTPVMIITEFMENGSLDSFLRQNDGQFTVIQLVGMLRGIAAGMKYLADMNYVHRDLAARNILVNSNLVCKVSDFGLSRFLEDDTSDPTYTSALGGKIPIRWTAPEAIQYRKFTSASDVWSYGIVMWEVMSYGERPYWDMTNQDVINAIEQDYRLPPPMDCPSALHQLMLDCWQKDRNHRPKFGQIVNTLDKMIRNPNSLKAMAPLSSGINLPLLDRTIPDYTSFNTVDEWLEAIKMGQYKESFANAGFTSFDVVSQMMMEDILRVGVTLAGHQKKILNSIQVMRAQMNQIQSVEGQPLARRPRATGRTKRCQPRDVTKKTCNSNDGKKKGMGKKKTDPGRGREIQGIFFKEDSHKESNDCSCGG

[2] = biological target: T2, Ephrin type-B receptor 3 (Homo sapiens) (UniProt P54753); assay: Inhibition of human EPHB3 at 18.6 nM by HotSpot assay relative to control
T2 sequence (whole entry): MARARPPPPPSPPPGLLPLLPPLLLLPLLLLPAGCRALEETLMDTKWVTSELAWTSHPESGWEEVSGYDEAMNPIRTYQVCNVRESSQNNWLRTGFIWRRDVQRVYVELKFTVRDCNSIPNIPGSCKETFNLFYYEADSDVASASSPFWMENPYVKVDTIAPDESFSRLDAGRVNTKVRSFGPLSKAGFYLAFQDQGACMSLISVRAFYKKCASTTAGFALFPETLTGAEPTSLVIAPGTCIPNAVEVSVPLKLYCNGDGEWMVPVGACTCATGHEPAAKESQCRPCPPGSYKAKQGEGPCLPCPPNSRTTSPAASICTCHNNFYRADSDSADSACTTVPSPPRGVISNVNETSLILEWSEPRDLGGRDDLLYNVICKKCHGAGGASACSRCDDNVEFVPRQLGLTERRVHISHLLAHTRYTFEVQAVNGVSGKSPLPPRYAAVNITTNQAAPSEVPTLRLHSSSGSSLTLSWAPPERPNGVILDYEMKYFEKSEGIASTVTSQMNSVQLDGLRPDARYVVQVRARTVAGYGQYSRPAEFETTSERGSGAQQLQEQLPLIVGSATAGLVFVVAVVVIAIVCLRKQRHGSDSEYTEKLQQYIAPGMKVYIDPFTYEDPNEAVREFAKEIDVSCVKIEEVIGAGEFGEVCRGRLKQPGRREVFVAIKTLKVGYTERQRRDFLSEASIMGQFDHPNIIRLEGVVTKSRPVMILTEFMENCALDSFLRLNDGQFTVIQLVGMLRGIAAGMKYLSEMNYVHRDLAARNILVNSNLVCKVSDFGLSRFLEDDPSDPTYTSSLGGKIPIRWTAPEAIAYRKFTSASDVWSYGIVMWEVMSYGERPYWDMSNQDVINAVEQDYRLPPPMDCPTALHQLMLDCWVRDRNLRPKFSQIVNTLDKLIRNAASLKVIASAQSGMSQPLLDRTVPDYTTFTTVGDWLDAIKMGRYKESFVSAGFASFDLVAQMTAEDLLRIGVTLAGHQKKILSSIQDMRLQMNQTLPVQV

[3] = biological target: Serine/threonine-protein kinase PAK 6 (Homo sapiens) (UniProt Q9NQU5); assay: Inhibition of human PAK6 at 18.6 nM by HotSpot assay relative to control
Serine/threonine-protein kinase PAK 6 (Homo sapiens), sequence (Q9NQU5 whole entry, looked up): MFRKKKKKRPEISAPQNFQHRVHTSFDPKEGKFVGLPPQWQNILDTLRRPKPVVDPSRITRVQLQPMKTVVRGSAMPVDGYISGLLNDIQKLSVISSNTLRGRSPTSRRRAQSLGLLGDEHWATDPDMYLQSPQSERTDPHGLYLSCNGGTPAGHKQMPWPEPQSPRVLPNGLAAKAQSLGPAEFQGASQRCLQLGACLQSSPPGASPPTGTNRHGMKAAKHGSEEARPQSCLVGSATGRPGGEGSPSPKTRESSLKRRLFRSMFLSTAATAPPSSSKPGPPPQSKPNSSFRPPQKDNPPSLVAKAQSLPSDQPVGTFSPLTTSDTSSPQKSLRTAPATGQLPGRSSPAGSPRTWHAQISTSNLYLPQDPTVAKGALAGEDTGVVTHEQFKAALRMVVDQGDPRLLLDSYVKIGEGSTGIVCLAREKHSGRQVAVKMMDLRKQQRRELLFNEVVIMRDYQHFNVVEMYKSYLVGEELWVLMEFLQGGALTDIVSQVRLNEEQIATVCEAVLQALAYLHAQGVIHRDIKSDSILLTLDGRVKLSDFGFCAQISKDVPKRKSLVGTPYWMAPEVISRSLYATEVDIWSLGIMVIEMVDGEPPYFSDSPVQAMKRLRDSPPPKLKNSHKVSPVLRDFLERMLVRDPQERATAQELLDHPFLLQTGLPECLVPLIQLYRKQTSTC

[4] = biological target: T3, Serine/threonine-protein kinase 17A (Homo sapiens) (UniProt Q9UEE5); assay: Inhibition of human DRAK1 at 1.82 nM by HotSpot assay relative to control
T3 sequence (whole entry): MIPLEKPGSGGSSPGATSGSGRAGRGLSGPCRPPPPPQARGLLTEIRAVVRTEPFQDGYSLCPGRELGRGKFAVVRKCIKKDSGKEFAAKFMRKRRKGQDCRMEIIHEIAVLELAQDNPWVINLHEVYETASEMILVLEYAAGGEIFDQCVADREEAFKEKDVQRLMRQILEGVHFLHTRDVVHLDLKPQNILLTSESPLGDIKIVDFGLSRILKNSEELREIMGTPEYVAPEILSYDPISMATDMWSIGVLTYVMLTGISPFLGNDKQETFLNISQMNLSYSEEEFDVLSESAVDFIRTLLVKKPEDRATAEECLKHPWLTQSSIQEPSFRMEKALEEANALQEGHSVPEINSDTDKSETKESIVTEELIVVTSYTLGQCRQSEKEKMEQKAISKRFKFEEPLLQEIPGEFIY

[5] = biological target: Leucine-rich repeat serine/threonine-protein kinase 2 (Homo sapiens) (UniProt Q5S007); assay: Inhibition of human LRRK2 at 1.82 nM by HotSpot assay relative to control
Leucine-rich repeat serine/threonine-protein kinase 2 (Homo sapiens), sequence (Q5S007 whole entry): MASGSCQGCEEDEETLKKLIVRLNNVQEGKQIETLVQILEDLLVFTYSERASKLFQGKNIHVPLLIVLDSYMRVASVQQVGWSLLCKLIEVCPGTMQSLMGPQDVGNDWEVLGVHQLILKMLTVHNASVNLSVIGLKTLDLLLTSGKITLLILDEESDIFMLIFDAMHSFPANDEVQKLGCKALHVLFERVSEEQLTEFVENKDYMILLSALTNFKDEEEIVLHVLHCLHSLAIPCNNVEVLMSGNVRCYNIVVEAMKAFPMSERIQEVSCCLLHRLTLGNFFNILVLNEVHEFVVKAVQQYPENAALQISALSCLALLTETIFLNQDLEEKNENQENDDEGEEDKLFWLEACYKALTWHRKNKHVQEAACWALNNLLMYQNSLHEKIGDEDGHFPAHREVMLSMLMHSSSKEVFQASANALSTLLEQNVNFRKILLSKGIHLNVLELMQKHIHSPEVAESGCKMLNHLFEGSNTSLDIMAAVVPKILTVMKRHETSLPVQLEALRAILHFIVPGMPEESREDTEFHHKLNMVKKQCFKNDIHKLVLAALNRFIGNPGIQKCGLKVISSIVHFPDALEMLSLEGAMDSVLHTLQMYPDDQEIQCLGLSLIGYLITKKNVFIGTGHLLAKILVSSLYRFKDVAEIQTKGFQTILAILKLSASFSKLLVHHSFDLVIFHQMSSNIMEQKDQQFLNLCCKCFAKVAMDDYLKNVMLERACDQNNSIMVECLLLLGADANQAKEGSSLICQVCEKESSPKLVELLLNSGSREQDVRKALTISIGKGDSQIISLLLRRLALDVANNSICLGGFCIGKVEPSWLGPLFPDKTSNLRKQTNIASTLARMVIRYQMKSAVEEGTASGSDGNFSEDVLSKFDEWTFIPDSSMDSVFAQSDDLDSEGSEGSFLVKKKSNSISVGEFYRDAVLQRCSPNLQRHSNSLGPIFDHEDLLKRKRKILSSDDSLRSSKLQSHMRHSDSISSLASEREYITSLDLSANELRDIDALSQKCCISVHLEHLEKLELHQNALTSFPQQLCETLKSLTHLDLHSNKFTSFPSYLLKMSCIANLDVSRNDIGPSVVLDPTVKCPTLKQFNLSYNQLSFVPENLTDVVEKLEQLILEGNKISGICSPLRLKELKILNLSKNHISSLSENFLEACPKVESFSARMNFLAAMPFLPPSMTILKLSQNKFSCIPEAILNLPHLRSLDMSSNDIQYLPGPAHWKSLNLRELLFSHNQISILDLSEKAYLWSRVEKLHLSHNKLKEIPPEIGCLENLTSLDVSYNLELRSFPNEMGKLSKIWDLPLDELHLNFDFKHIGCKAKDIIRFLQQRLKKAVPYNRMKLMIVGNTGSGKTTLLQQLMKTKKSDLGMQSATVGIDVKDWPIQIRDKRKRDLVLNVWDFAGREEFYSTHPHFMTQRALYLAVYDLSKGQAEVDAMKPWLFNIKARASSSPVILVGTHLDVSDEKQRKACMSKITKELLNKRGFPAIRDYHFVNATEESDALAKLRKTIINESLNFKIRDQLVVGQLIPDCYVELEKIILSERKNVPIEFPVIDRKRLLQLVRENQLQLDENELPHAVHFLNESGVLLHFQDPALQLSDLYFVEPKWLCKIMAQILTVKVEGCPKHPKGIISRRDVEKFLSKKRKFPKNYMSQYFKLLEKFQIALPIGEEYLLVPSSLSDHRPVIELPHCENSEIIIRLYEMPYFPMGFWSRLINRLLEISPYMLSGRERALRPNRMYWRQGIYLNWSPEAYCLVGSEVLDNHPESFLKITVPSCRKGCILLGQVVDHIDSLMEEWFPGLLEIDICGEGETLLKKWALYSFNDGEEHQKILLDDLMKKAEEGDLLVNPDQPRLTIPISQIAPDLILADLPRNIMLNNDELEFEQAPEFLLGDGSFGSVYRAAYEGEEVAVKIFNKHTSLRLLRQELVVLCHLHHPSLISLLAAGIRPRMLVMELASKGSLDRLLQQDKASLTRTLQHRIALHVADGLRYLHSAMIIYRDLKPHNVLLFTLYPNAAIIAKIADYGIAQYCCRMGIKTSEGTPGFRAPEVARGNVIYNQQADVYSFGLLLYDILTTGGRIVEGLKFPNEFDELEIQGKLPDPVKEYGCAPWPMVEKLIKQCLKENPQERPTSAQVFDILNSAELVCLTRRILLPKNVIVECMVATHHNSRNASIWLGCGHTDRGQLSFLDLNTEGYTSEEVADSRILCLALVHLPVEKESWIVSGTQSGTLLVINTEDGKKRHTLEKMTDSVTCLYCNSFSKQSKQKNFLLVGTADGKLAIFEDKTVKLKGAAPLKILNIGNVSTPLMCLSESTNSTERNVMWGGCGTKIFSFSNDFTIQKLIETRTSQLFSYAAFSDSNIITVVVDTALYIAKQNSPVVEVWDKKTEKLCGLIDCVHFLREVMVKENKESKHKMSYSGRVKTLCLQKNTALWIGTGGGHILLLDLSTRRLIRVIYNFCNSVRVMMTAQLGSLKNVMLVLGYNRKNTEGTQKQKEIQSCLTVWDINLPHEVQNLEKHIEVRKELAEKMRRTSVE

Row | inhibition [1] [%] | inhibition [2] [%] | inhibition [3] [%] | inhibition [4] [%] | inhibition [5] [%] | Compound
1 | -7.65 | -2.53 | -8.39 | – | – | C[C@]1(O)C[C@@H](c2nc(-c3ccc4ccc(-c5ccccc5)nc4c3)c3c(N)nccn32)C1
2 | – | – | – | 2.5 | -6.63 | C[C@@]1(C(=O)Nc2ccc(F)nc2)CCCN1c1nc(Nc2cc(C3CC3)n[nH]2)c2cccn2n1
